Patent US20240343733A1, “COMPOUNDS FOR TARGETING DEGRADATION OF IRAK4 PROTEINS” (BIOGEN MA INC., priority 2021, published 2024)

Columns and labels:
IKZF1 = target: T1, IKZF1 (Homo sapiens, UniProt Q13422); test: IKZF1 Degradation Assay, HiBiT Method; assay type: cell-based; conditions: for DC50: NCIH929 cells expressing HiBiT-tagged IKZF1, 6 hours, top concentration 10 μM
T1 construct: endogenously expressing IKZF1 with HiBiT fusion tag via CRISPR
Description: Assay 2. IKZF1 Degradation Assay, HiBiT Method
Selected compounds of this disclosure were tested in an IKZF1 degradation assay using the HiBiT Method.
RPMI no-phenol red medium and fetal bovine serum (FBS) were purchased from Gibco (Grand Island, NY, USA). Nano-Glo® HiBiT Lytic Assay System was purchased from Promega (Madison, WI, USA). […] Cell culture flasks and 384-well microplates were acquired from VWR (Radnor, PA, USA).
IKZF1 degradation was determined based on quantification of luminescent signal using Nano-Glo® HiBiT Lytic Assay kit. […] NCIH929 cells expressing HiBiT-tagged IKZF1 were added into 384-well plates in RPMI medium containing 10% FBS and 0.05 mM 2-mercaptoethanol at a cell density of 15000 cells per well. The plates were kept at 37° C. with 5% CO2 for 6 hours. Cells treated in the absence of the test compound were the negative control and wells containing media only were the positive control. After 6-hour incubation, Nano-Glo® HiBiT Lytic Assay reagents were added to the designated wells. Luminescence was acquired on EnVision® Multilabel Reader (PerkinElmer, Santa Clara, CA, USA).

IRAK4 = target: T2, IRAK4 (Homo sapiens, UniProt Q9NWZ3); test: IRAK4 Degradation Assay, HiBiT Method; assay type: cell-based; conditions: 293T cells expressing HiBiT-tagged IRAK4, 6 hours
T2 construct: 293Tcells expressing HiBiT-tagged IRAK4 were then added into 384-well plates
T2 sequence (Q9NWZ3 1-460): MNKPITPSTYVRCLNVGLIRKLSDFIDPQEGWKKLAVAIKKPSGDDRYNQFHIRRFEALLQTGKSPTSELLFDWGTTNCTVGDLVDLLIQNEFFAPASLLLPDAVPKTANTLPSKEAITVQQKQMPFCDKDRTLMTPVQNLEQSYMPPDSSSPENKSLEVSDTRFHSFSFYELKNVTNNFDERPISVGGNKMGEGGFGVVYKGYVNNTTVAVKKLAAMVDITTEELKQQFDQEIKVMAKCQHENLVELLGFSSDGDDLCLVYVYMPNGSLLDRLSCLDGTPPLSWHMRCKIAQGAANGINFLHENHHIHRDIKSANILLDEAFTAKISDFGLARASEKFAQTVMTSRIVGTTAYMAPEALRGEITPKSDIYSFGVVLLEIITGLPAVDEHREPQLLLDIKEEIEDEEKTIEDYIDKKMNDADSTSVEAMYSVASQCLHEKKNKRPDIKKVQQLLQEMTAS
In short: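 Luminescent read-out with Nano-Glo HiBiT lytic reagent after 6 h compound exposure at 37 °C. Cells were HiBiT-IRAK4 knock-in 293T (C-terminal tag), 10,000 per well. Compounds ran as 11-point half-log dilutions from […] highest dose, duplicate wells; DMSO served as negative control.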

T1 sequence (Q96SW2 whole entry partner, the tested form may be a part): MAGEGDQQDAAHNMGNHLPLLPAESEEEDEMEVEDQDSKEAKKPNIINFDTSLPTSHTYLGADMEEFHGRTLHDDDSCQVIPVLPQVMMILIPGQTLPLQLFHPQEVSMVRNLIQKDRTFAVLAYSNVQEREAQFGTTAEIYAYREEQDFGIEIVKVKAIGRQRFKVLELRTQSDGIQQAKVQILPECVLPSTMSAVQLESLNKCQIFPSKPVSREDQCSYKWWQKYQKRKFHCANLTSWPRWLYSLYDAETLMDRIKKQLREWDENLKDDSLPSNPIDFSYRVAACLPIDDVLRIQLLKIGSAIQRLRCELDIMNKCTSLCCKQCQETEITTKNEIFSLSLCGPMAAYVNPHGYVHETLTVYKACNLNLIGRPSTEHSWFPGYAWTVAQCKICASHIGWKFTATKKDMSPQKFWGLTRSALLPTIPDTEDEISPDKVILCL
T1 sequence (Q16531 whole entry partner, the tested form may be a part): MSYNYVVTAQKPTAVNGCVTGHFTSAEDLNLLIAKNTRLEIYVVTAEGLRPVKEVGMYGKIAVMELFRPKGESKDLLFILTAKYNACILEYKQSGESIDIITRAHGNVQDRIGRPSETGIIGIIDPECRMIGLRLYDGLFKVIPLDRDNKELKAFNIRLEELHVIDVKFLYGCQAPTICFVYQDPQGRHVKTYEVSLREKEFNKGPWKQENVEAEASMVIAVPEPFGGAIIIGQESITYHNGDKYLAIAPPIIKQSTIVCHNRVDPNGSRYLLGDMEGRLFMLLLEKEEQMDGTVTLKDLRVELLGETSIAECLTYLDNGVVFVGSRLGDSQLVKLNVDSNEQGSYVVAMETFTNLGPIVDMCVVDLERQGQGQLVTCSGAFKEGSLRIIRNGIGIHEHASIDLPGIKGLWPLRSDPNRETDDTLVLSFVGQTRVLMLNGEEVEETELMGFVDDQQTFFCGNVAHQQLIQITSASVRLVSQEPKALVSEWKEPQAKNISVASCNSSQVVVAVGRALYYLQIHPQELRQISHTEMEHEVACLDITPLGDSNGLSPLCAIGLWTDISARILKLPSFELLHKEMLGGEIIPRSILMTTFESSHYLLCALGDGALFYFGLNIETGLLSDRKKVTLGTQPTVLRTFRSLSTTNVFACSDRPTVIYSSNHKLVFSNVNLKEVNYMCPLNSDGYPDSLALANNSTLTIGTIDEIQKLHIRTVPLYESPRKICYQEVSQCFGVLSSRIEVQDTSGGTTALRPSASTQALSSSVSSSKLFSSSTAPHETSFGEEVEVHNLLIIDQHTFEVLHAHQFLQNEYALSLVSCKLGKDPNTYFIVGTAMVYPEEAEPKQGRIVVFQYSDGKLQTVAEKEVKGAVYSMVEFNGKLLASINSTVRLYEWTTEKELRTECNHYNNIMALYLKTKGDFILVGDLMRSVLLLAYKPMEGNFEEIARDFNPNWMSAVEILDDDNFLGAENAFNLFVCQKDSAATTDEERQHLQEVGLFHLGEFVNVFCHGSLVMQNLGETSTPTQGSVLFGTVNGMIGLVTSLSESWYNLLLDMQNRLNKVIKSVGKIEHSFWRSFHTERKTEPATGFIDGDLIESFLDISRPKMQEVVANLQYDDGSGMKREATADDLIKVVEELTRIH
T1 sequence (Q13422 whole entry, the tested form may be a part): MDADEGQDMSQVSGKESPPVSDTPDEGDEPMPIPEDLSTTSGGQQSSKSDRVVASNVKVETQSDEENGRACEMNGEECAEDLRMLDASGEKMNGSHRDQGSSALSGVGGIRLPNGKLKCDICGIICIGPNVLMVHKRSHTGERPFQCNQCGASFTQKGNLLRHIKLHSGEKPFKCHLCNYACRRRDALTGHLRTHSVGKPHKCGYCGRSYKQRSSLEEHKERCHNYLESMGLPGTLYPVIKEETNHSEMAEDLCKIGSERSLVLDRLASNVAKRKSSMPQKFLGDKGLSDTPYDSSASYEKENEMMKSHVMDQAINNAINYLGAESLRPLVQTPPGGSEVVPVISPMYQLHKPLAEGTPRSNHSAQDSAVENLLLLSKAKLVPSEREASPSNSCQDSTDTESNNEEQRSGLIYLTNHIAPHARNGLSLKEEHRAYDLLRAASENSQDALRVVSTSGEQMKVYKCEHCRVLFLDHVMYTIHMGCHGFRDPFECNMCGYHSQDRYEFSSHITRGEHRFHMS

| DC50 (IKZF1) | DC50 (IRAK4) | degradation of IKZF1 (IKZF1; NCIH929.11 cells, 6 hours) | Compound |
| --- | --- | --- | --- |
| > 10000 nM | < 10 nM |  | CC(C)Oc1cc2nn([C@H]3CC[C@H](CN4CCC(c5ccc(O[C@H]6CCC(=O)NC6=O)cc5)CC4)CC3)cc2cc1C(=O)Nc1cccn(C2CC2)c1=O (single isomer, unassigned) [Example 142] |
| > 10000 nM | 10 to 100 nM |  | CC(C)Oc1cc2nc([C@H]3CC[C@H](CN4CCC(c5ccc(C6CCC(=O)NC6=O)cc5F)CC4)CC3)cn2cc1C(=O)Nc1cccc(C(F)F)n1 (stereo partly drawn) [Example 23, N-[6-(difluoromethyl)-2-pyridyl]-2-[4-[[4-[4-(2,6-dioxo-3-piperidyl)-2-fluoro-phenyl]-1-piperidyl]methyl]cyclohexyl]-7-isopropoxy-imidazo[1,2-a]pyridine-6-carboxamide] |
| > 10000 nM | 10 to 100 nM |  | CC(C)Oc1cc2nc([C@H]3CC[C@H](CN4CCC(c5ccc(OC6CCC(=O)NC6=O)cc5)CC4)CC3)cn2cc1C(=O)Nc1cccc(C(F)F)n1 (stereo partly drawn) [Example 31, N-[6-(difluoromethyl)-2-pyridyl]-2-[4-[[4-[4-[(2,6-dioxo-3-piperidyl)oxy]phenyl]-1-piperidyl]methyl]cyclohexyl]-7-isopropoxy-imidazo[1,2-a]pyridine-6-carboxamide] |
| > 10000 nM | < 10 nM |  | CC(C)Oc1cc2nc([C@H]3CC[C@H](CN4CCC(c5ccc6c(N7CCC(=O)NC7=O)nn(C)c6c5)CC4)CC3)cn2cc1C(=O)Nc1cccc(C(F)F)n1 [Example 38, N-[6-(difluoromethyl)-2-pyridyl]-2-[4-[[4-[3-(2,4-dioxohexahydropyrimidin-1-yl)-1-methyl-indazol-6-yl]-1-piperidyl]methyl]cyclohexyl]-7-isopropoxy-imidazo[1,2-a]pyridine-6-carboxamide] |
| > 10000 nM | 10 to 100 nM |  | CC(C)Oc1cc2nc([C@H]3CC[C@H](CN4CCN(c5ccc6c(N7CCC(=O)NC7=O)nn(C)c6c5)CC4)CC3)cn2cc1C(=O)Nc1cccc(C(F)F)n1 [Example 41, N-[6-(difluoromethyl)-2-pyridyl]-2-[4-[[4-[3-(2,4-dioxohexahydropyrimidin-1-yl)-1-methyl-indazol-6-yl]piperazin-1-yl]methyl]cyclohexyl]-7-isopropoxy-imidazo[1,2-a]pyridine-6-carboxamide] |
| > 10000 nM | < 10 nM |  | CC(C)Oc1cc2nc(C3CCC(CN4CCC(c5ccc(C6CCC(=O)NC6=O)cc5F)CC4)CC3)cn2cc1C(=O)Nc1cnn2cccnc12 (stereo not drawn) [Example 47, 2-[4-[[4-[4-(2,6-dioxo-3-piperidyl)-2-fluoro-phenyl]-1-piperidyl]methyl]cyclohexyl]-7-isopropoxy-N-pyrazolo[1,5-a]pyrimidin-3-yl-imidazo[1,2-a]pyridine-6-carboxamide] |
| > 10000 nM | < 10 nM |  | CC(C)Oc1cc2nc([C@H]3CC[C@H](CN4CCC(c5ccc6c(c5)n(C)c(=O)n6C5CCC(=O)NC5=O)C(F)(F)C4)CC3)cn2cc1C(=O)Nc1cnn2cccnc12 (stereo partly drawn) [Example 49, 2-[4-[[4-[1-(2,6-dioxo-3-piperidyl)-3-methyl-2-oxo-benzimidazol-5-yl]-3,3-difluoro-1-piperidyl]methyl]cyclohexyl]-7-isopropoxy-N-pyrazolo[1,5-a]pyrimidin-3-yl-imidazo[1,2-a]pyridine-6-carboxamide] |
| > 10000 nM | < 10 nM |  | CC(C)Oc1cc2nc([C@H]3CC[C@H](CN4CCC(c5ccc(OC6CCC(=O)NC6=O)cc5)CC4)CC3)cn2cc1C(=O)Nc1cnn2cccnc12 (stereo partly drawn) [Example 50, 2-[4-[[4-[4-[(2,6-dioxo-3-piperidyl)oxy]phenyl]-1-piperidyl]methyl]cyclohexyl]-7-isopropoxy-N-pyrazolo[1,5-a]pyrimidin-3-yl-imidazo[1,2-a]pyridine-6-carboxamide] |
|  | < 10 nM |  | CC(C)Oc1cc2nc(C3CCC(CN4CC[C@H](c5cc6c(cc5F)c(N5CCC(=O)NC5=O)nn6C)[C@H](O)C4)CC3)cn2cc1C(=O)Nc1cccn([C@H]2C[C@H]2F)c1=O (stereo partly drawn) [Example 185, 2-((1S,4S)-4-(((3S,4R)-4-(3-(2,4-dioxotetrahydropyrimidin-1(2H)-yl)-5-fluoro-1-methyl-1H-indazol-6-yl)-3-hydroxypiperidin-1-yl)methyl)cyclohexyl)-N-(1-((1S,2R)-2-fluorocyclopropyl)-2-oxo-1,2-dihydropyridin-3-yl)-7-isopropoxyimidazo[1,2-a]pyridine-6-carboxamide] |
|  | < 10 nM |  | CC(C)Oc1nc2nc(C3CCN(C(=O)CC4CCN(c5ncc(C6CCC(=O)NC6=O)cc5F)CC4)CC3)cn2cc1C(=O)Nc1cccn([C@H]2C[C@H]2F)c1=O (stereo partly drawn) [Example 186, 2-(1-(2-(1-(5-(2,6-dioxopiperidin-3-yl)-3-fluoropyridin-2-yl)piperidin-4-yl)acetyl)piperidin-4-yl)-N-(1-((1S,2R)-2-fluorocyclopropyl)-2-oxo-1,2-dihydropyridin-3-yl)-7-isopropoxyimidazo[1,2-a]pyrimidine-6-carboxamide] |
|  | < 10 nM |  | CC(C)Oc1cc2nn([C@H]3CC[C@H](CN4CC[C@H](c5ccc(OC6CCC(=O)NC6=O)cc5)[C@@H](O)C4)CC3)cc2cc1C(=O)Nc1cccn([C@H]2C[C@H]2F)c1=O (stereo partly drawn) [Example 187] |
|  | < 10 nM |  | CC(C)Oc1cc2nc(C3CCN(C(=O)CC4CCN(c5cnc(C6CCC(=O)NC6=O)cn5)CC4)CC3)cn2cc1C(=O)Nc1cccn([C@H]2C[C@H]2F)c1=O (stereo partly drawn) [Example 189] |
|  | 10 to 100 nM |  | CC(C)Oc1cc2nc([C@H]3CC[C@H](CN4CC5(CCN(c6ncc(N7CCC(=O)NC7=O)cc6F)CC5)C4)CC3)cn2cc1C(=O)Nc1cccn(C2CC2)c1=O [Example 190] |
|  | < 10 nM |  | CO[C@H]1CN(C[C@H]2CC[C@H](c3cn4cc(C(=O)Nc5cccn([C@H]6C[C@H]6F)c5=O)c(OC(C)C)cc4n3)CC2)CC[C@H]1c1ccc2c(N3CCC(=O)NC3=O)nn(C)c2c1 [Example 191] |
|  | < 10 nM |  | CC(C)Oc1nc2nc([C@H]3CC[C@H](CN4CCC(c5ccc6c(c5)n(C)c(=O)n6C5CCC(=O)NC5=O)CC4)CC3)cn2cc1C(=O)Nc1cccn([C@H]2C[C@H]2F)c1=O (stereo partly drawn) [Example 192] |
|  | 10 to 100 nM |  | CC(C)Oc1nc2nc(C3CCN(C(=O)N(C)C4CCN(c5ncc(C6CCC(=O)NC6=O)cc5F)CC4)CC3)cn2cc1C(=O)Nc1cccn([C@H]2C[C@H]2F)c1=O (stereo partly drawn) [Example 193] |
|  | 10 to 100 nM |  | CC(C)Oc1cc2nc([C@H]3CC[C@](F)(CN4CCC(c5ccc6c(c5)n(C)c(=O)n6C5CCC(=O)NC5=O)CC4)CC3)cn2cc1C(=O)Nc1cccn([C@H]2C[C@H]2F)c1=O (stereo partly drawn) [Example 194] |
|  | 10 to 100 nM |  | CC(C)Oc1nc2nc(C3CCN(C(=O)N(C)C4CCN(c5ncc(C6CCC(=O)NC6=O)cc5F)CC4)CC3)cn2cc1C(=O)Nc1cccn(C2CC2)c1=O (stereo not drawn) [Example 195] |
|  | < 10 nM |  | CC(C)Oc1nc2nc(C3CCN(C(=O)CC4CC5(C4)CN(c4ccc(C6CCC(=O)NC6=O)cn4)C5)CC3)cn2cc1C(=O)Nc1cccn([C@H]2C[C@H]2F)c1=O (stereo partly drawn) [Example 196] |
|  | < 10 nM |  | CC(C)Oc1nc2nc(C3CCC(CN4CCC(c5cc6c(cc5F)c(N5CCC(=O)NC5=O)nn6C)CC4)CC3)cn2cc1C(=O)Nc1cccn([C@H]2C[C@H]2F)c1=O (stereo partly drawn) [Example 197, 2-[4-[[4-[3-(2,4-dioxohexahydropyrimidin-1-yl)-5-fluoro-1-methyl-indazol-6-yl]-1-piperidyl]methyl]cyclohexyl]-N-[1-[(1S,2R)-2-fluorocyclopropyl]-2-oxo-3-pyridyl]-7-isopropoxy-imidazo[1,2-a]pyrimidine-6-carboxamide] |
|  | < 10 nM |  | CC(C)Oc1cc2nn([C@H]3CC[C@H](CN4CCC(c5cc6c(cc5F)c(N5CCC(=O)NC5=O)nn6C)CC4)CC3)cc2cc1C(=O)Nc1cccn(C2CC2)c1=O [Example 198, N-(1-cyclopropyl-2-oxo-1,2-dihydropyridin-3-yl)-2-((r,4r)-4-((4-(3-(2,4-dioxotetrahydropyrimidin-1(2H)-yl)-5-fluoro-1-methyl-1H-indazol-6-yl)piperidin-1-yl)methyl)cyclohexyl)-6-isopropoxy-2H-indazole-5-carboxamide] |
|  |  | 90% | Nc1cccc2c1C(=O)N(C1CCC(=O)NC1=O)C2=O (stereo not drawn) [pomalidomide, reference compound] |
